Assay results from US7507727B2, “Substituted quinobenzoxazine analogs and methods of using thereof” (Cylene Pharmaceuticals, Inc., priority 2003, dated 2009).

Target: c-Myc template DNA (c-myc quadruplex)
Assay: Quadruplex binding / stop assay (Taq polymerase arrest, capillary electrophoresis)
Conditions: read-out: S DATA; Table 1D, stop assay data

| SMILES | IC50 [µM] |
| --- | --- |
| COc1cccc(CCNC(=O)c2cn3c4c(c(N5CCC(N)C5)c(F)cc4c2=O)Oc2cc4ccccc4cc2-3)c1 (stereo not shown) [compound 1698] | > 15 |
| C[C@@H](O)CNC(=O)c1cn2c3c(c(N4CCC(N)C4)c(F)cc3c1=O)Oc1cc3ccccc3cc1-2 (stereo partly shown) [compound 1708] | > 15 |
| O=C(NCCCN1CCOCC1)c1cn2c3c(c(NCCCN4CCOCC4)ccc3c1=O)Oc1cc3ccccc3cc1-2 [compound 1530] | > 15 |
| CN1CCN(CCCNc2c(F)cc3c(=O)c(C(=O)NCCN4CCCC4)cn4c3c2Oc2ccccc2-4)CC1 [compound 1577] | > 15 |
| NC1CCN(C(=O)c2cn3c4c(c(NCCN5CCCC5)c(F)cc4c2=O)Oc2ccccc2-3)C1 (stereo not shown) [compound 1629] | > 15 |
| CC(C)C(CO)Nc1c(F)cc2c(=O)c(C(=O)NCCC3CCCN3C)cn3c2c1Oc1cc2ccccc2cc1-3 (stereo not shown) [compound 1747] | > 15 |
| O=C(NCCN1CCCC1)c1cn2c3c(c(NCCN4CCOCC4)c(F)cc3c1=O)Oc1ccccc1-2 [compound 1609] | > 15 |
| CN1CCCC1CCNC(=O)c1cn2c3c(c(N4CCC(NC(=O)OC(C)(C)C)C4)ccc3c1=O)Oc1cc3ccccc3cc1-2 (stereo not shown) [compound 1535] | 0.75 |
| O=C(NCCN1CCCC1)c1cn2c3c(c(N4CCN(C(=O)N5CCC[C@H]5C(=O)C(F)(F)F)CC4)c(F)cc3c1=O)Oc1cc(Cl)ccc1-2 [compound 1824] | 9.4 |
| O=C(NCCN1CCCC1)c1cn2c3c(c(NCC4CCCO4)c(F)cc3c1=O)Oc1cc3ccccc3cc1-2 (stereo not shown) [compound 1734] | 3 |
| CN(C)CCCCNc1ccc2c(=O)c(C(=O)NCCC3CCCN3C)cn3c2c1Oc1cc2ccccc2cc1-3 (stereo not shown) [compound 1541] | 1.75 |
| CN1CCCC1CCNC(=O)c1cn2c3c(c(SCCc4ccccn4)c(F)cc3c1=O)Oc1cc3ccccc3cc1-2 (stereo not shown) [compound 1781] | 5.5 |
| NC1CCN(c2c(F)cc3c(=O)c(C(=O)NCC(O)CO)cn4c3c2Oc2cc3ccccc3cc2-4)C1 (stereo not shown) [compound 1704] | 1.75 |

The remaining lines, values ahead:

| IC50 [µM] | SMILES |
| --- | --- |
| 0.34 | N=C(N)NCCNC(=O)c1cn2c3c(c(NCCN4CCCC4)c(F)cc3c1=O)Oc1cc3ccccc3cc1-2 [compound 1653] |
| > 15 | N=C(N)NCCCCNC(=O)c1cn2c3c(c(NCCN4CCOCC4)c(F)cc3c1=O)Oc1ccccc1-2 [compound 1634] |
| > 15 | CN1CCN(C(=O)c2cn3c4c(c(NCCN5CCOCC5)c(F)cc4c2=O)Oc2ccccc2-3)CC1 [compound 1614] |
| 1.75 | CN1CCCC1CCNC(=O)c1cn2c3c(c(/N=C4\CCCCN4)c(F)cc3c1=O)Oc1cc3ccccc3cc1-2 (stereo not shown) [compound 1482] |
| 11 | O=C(NCCN1CCCC1)c1cn2c3c(c(N4CCC(c5cnccn5)C4)c(F)cc3c1=O)Oc1ccccc1-2 (stereo not shown) [compound 1724] |
| > 15 | CC(C)N1CCN(c2c(F)cc3c(=O)c(C(=O)NCCC4CCCN4C)cn4c3c2Oc2ccccc2-4)CC1 (stereo not shown) [compound 1565] |
| 0.75 | CN1CCCC1CCNC(=O)c1cn2c3c(c(N4C[C@@H](N)[C@H](c5ccccc5)C4)c(F)cc3c1=O)Oc1cc3ccccc3cc1-2 (stereo partly shown) [compound 1618] |
| 1 | CCN(CC)CCCC(C)NC(=O)c1cn2c3c(c(N4CCC(c5cnccn5)C4)ccc3c1=O)Oc1cc3ccccc3cc1-2 (stereo not shown) [compound 1720] |
| > 15 | CN(C)CCCCNC(=O)c1cn2c3c(c(NCCN4CCCC4)c(F)cc3c1=O)Oc1ccccc1-2 [compound 1598] |
| 4 | CCN(CC)CCCCNC(=O)c1cn2c3c(c(N4CCC(c5cnccn5)C4)c(F)cc3c1=O)Oc1ccc(Cl)cc1-2 (stereo not shown) [compound 1802] |
| 1.75 | COc1ccc2[nH]cc(CCNc3c(F)cc4c(=O)c(C(=O)NCCC5CCCN5C)cn5c4c3Oc3cc4ccccc4cc3-5)c2c1 (stereo not shown) [compound 1671] |
| 9.8 | COc1ccc(CCNc2c(F)cc3c(=O)c(C(=O)NCCC4CCCN4C)cn4c3c2Oc2cc3ccccc3cc2-4)cc1OC (stereo not shown) [compound 1757] |
| > 15 | CC1CCCN(CCCNC(=O)c2cn3c4c(c(N5CCC(N)C5)c(F)cc4c2=O)Oc2cc4ccccc4cc2-3)C1 (stereo not shown) [compound 1712] |
| 2.9 | N#Cc1ccc2c(c1)-n1cc(C(=O)NCCN3CCCC3)c(=O)c3cc(F)c(N4CCC(c5cnccn5)C4)c(c31)O2 (stereo not shown) [compound 1778] |

Same assay, conditions: read-out: Stop Data c-Myc μM; concentration at which 50% of the DNA was arrested (arrested:full-length 1:1)

| SMILES | IC50 [µM] |
| --- | --- |
| CN1CCCC1CCNC(=O)c1cn2c3c(c(N4CCC(NC(=O)OC(C)(C)C)CC4)c(F)cc3c1=O)Oc1cc3ccccc3cc1-2 (stereo not shown) [compound 262] | 1.75 |
| CCCCOCCCNc1c(F)cc2c(=O)c(C(=O)NCCC3CCCN3C)cn3c2c1Oc1cc2ccccc2cc1-3 (stereo not shown) [compound 1470] | 1.75 |
| CCCCN(CCCC)CCCNc1c(F)cc2c(=O)c(C(=O)N3CCOCC3)cn3c2c1Oc1cc2ccccc2cc1-3 [compound 45] | 2.5 |
| CN1CCCC1CCNC(=O)c1cn2c3c(c(NCCCn4ccnc4)c(F)cc3c1=O)Oc1cc3ccccc3cc1-2 (stereo not shown) [compound 335] | 1 |
| NC1CCN(C(=O)c2cn3c4cc5c(=O)c6ccccc6c(=O)c5cc4oc4c(NCCCN5CCOCC5)c(F)cc(c2=O)c43)C1 (stereo not shown) [compound 94] | 2.5 |
| CN1CCCC1CCNC(=O)c1cn2c3c(c(NCCC4CCCN4C)c(F)cc3c1=O)Oc1c-2ccc2ccccc12 (stereo not shown) [compound 525] | 0.375 |
| CN1CCCC1CCNC(=O)c1cn2c3c(c(NCC4CCNC4)c(F)cc3c1=O)Oc1cc3ccccc3cc1-2 (stereo not shown) [compound 559] | 0.375 |
| CN(C)CCCCNC(=O)c1cn2c3c(c(N)c(F)c(NCCCN4CCOCC4)c3c1=O)Oc1cc3ccccc3cc1-2 [compound 192] | 1.75 |
| CN1CCCC1CCNC(=O)c1cn2c3c(c(NC4CN5CCC4CC5)c(F)cc3c1=O)Oc1cc3ccccc3cc1-2 (stereo not shown) [compound 435] | 0.75 |
| CN(C)CCCCNc1c(F)cc2c(=O)c(C(=O)N3CCN(C)CC3)cn3c2c1Oc1cc2c(cc1-3)oc1ccccc12 [compound 164] | 1.75 |
| CN1CCCC1CCNc1ccc2c(=O)c(C(=O)NC3CC(C)(C)NC(C)(C)C3)cn3c2c1Oc1cc2ccccc2cc1-3 (stereo not shown) [compound 270] | 1.75 |
| O=C(CNCCN1CCCC1)N[C@@H]1CCN(c2c(F)cc3c(=O)c(C(=O)N4CCOCC4)cn4c3c2Oc2cc3c(cc2-4)oc2ccccc23)C1 [compound 180] | 1.75 |
| CN1CCCC1CCNC(=O)c1cn2c3cc4c(=O)c5ccccc5c(=O)c4cc3oc3c(N4CCC(N)C4)c(F)cc(c1=O)c32 (stereo not shown) [compound 489] | 0.5 |
| CN1CCCN(C(=O)c2cn3c4c(c(N5CCC(N)C5)c(F)cc4c2=O)Oc2cc4ccccc4cc2-3)CC1 (stereo not shown) [compound 197] | 1.75 |

Further lines, results first:

| IC50 [µM] | SMILES |
| --- | --- |
| 0.375 | CN(C)CCCCNC(=O)c1cn2c3c(c(NCCC4CCCN4C)c(F)cc3c1=O)Oc1c-2ccc2ccccc12 (stereo not shown) [compound 550] |
| 0.75 | CN1CCCC1CCNC(=O)c1cn2c3c(c(N(C)C4CCNC4)c(F)cc3c1=O)Oc1cc3ccccc3cc1-2 (stereo not shown) [compound 439] |
| 1.75 | CN1CCCC1CCNC(=O)c1cn2c3c(c(N4CCC(NC(=O)OC(C)(C)C)C4)c(F)c(N)c3c1=O)Oc1cc3ccccc3cc1-2 (stereo not shown) [compound 225] |
| 2.5 | N[C@@H]1CCN(c2c(F)cc3c(=O)c(C(=O)NCCN4CCOCC4)cn4c3c2Oc2c-4ccc3ccccc23)C1 [compound 77] |
| 0.37 | N=C(N)NCC1CCCC(CNC(=O)c2cn3c4c(c(N5CCC(N)C5)c(F)cc4c2=O)Oc2cc4ccccc4cc2-3)C1 (stereo not shown) [compound 560] |
| 0.75 | CN(C)CCCCNC(=O)c1cn2c3c(c(NCCCN4CCN(C)CC4)c(F)cc3c1=O)Oc1cc3ccccc3cc1-2 [compound 396] |
| 1.75 | CC(C)(C)OC(=O)NC1CCN(C(=O)c2cn3c4c(c(NCCCN5CCOCC5)c(F)c(N)c4c2=O)Oc2cc4ccccc4cc2-3)C1 (stereo not shown) [compound 219] |
| 1.75 | CN1CCCC1CCNC(=O)c1cn2c3cc4c(=O)c5ccccc5c(=O)c4cc3oc3c(N4CCC(NC(=O)OC(C)(C)C)C4)c(F)cc(c1=O)c32 (stereo not shown) [compound 168] |
| 2.5 | CN1CCN(CCCNC(=O)c2cn3c4c(c(NC(=O)CCN5CCCC5)c(F)cc4c2=O)Oc2cc4ccccc4cc2-3)CC1 [compound 88] |
| 1.75 | CN(C)CCCCNC(=O)c1cn2c3cc4c(=O)c5ccccc5c(=O)c4cc3oc3c(NCCCN4CCOCC4)c(F)cc(c1=O)c32 [compound 167] |
| 0.75 | CN(C)CCCCNc1c(F)cc2c(=O)c(C(=O)O)cn3c4cc5oc6cc(N)ccc6[nH]c5cc4oc1c23 [compound 21] |
| 1.75 | CN(C)CCCCNc1c(F)cc2c(=O)c(C(=O)NCCCN3CCN(C)CC3)cn3c4cc5c(=O)c6ccccc6c(=O)c5cc4oc1c23 [compound 171] |
| 0.75 | CN1CCCC1CCNCC(=O)N[C@@H]1CCN(c2c(F)cc3c(=O)c(C(=O)N4CCCC4)cn4c3c2Oc2cc3c(cc2-4)oc2ccccc23)C1 (stereo partly shown) [compound 412] |
| 2.5 | CN1CCN(C(=O)c2cn3c4c(c(NCCC5CCCN5C)c(F)cc4c2=O)Oc2c-3ccc3ccccc23)CC1 (stereo not shown) [compound 75] |
| 1.75 | CC(C)(C)OC(=O)NC1CCN(c2c(F)c(N)c3c(=O)c(C(=O)NCCN4CCCC4)cn4c3c2Oc2cc3ccccc3cc2-4)C1 (stereo not shown) [compound 224] |
| 1.75 | NC1CCN(c2c(F)cc3c(=O)c(C(=O)NCc4ccccc4N4CCOCC4)cn4c3c2Oc2cc3ccccc3cc2-4)C1 (stereo not shown) [compound 248] |
| 1.75 | Nc1c(F)c(NCCCN2CCOCC2)c2c3c1c(=O)c(C(=O)NCCN1CCOCC1)cn3-c1cc3ccccc3cc1O2 [compound 221] |
| 1.75 | COc1ccc(OC)c(CCNc2c(F)cc3c(=O)c(C(=O)NCCC4CCCN4C)cn4c3c2Oc2cc3ccccc3cc2-4)c1 (stereo not shown) [compound 291] |
| 0.75 | CN(C)CCCCNc1ccc2c(=O)c(C(=O)NCCN3CCOCC3)cn3c2c1Oc1cc2ccccc2cc1-3 [compound 453] |
| 1.75 | CN1CCC(N(C)c2c(F)cc3c(=O)c(C(=O)NCCC4CCCN4C)cn4c3c2Oc2cc3ccccc3cc2-4)CC1 (stereo not shown) [compound 257] |
| 0.75 | CCN(CC)CCCC(C)Nc1c(F)cc2c(=O)c(C(=O)NCCC3CCCN3C)cn3c2c1Oc1cc2ccccc2cc1-3 (stereo not shown) [compound 436] |
| 1.75 | NC1CCN(c2c(F)cc3c(=O)c(C(=O)N4CCCCC4CN4CCCC4)cn4c3c2Oc2cc3ccccc3cc2-4)C1 (stereo not shown) [compound 249] |
| 0.64 | CN(C)CCCCNC(=O)c1cn2c3c(c(NCCCCN(C)C)c(F)cc3c1=O)Oc1c-2ccc2ccccc12 [compound 470] |
